Tests used:
Type in all cases: in vivo
Barnyardgrass [1] = experiment: Pre-emergence herbicide test; conditions: Echinochloa crus-galli, 11.21 kg/ha, read-out: % plant inhibition (Bygr)
Experimental: (§1) The tests for pre-emergence herbicide activity are conducted as follows:
(§2) Topsoil is placed in an aluminum pan and compacted to a depth of 0.95 to 1.27 cm from the top of the pan. On the top of the soil is placed a predetermined number of seeds of each of several monocotyledonous and dicotyledonous annual plant species and/or vegetative propagules of various perennial plant species. A known amount of the active ingredient dissolved or suspended in an organic solvent, e.g., acetone, or water as carrier is then applied directly to the seed bed, which is then covered with a layer of untreated topsoil to level fill the pan. After treatment, the pans are moved to a greenhouse bench where they are watered from below as needed to give adequate moisture for germination and growth.
(§3) Approximately 10-14 days (usually 11 days) after seeding and treating, the pans are observed and the results (% inhibition) are recorded.
(§4) Tables 7 and 7A below summarize the results of the pre-emergence herbicidal activity tests of compounds of this invention in weeds. The herbicidal rating shown in these tables is the percent inhibition of each plant species. The plant species usually regarded as weeds which are utilized in one set of tests, the data for which are shown in the tables, are identified by letter headings above the columns in accordance with the following legend: […]

Yellow nutsedge [2] = experiment: Pre-emergence herbicide test; conditions: Cyperus, 11.21 kg/ha, read-out: % plant inhibition (Yens)
Experimental: as §1, §2, §3, §4

Indian Mustard [3] = experiment: Pre-emergence herbicide test; conditions: Brassica juncea, 11.21 kg/ha, read-out: % plant inhibition (Inmu)
Experimental: as §1, §2, §3, §4

Velvetleaf [4] = experiment: Pre-emergence herbicide test; conditions: Abutilon theophrasti, 11.21 kg/ha, read-out: % plant inhibition (Vele)
Experimental: as §1, §2, §3, §4

Morningglory [5] = experiment: Pre-emergence herbicide test; conditions: Ipomoea, 11.21 kg/ha, read-out: % plant inhibition (Mogl)
Experimental: as §1, §2, §3, §4

Cocklebur [6] = experiment: Pre-emergence herbicide test; conditions: Xanthium strumarium, 11.21 kg/ha, read-out: % plant inhibition (Cobu)
Experimental: as §1, §2, §3, §4

Seedling johnsongrass [7] = experiment: Pre-emergence herbicide test; conditions: Sorghum halepense, 11.21 kg/ha, read-out: % plant inhibition (Sejg)
Experimental: as §1, §2, §3, §4

Annual bluegrass [8] = experiment: Pre-emergence herbicide test; conditions: 11.21 kg/ha, read-out: % plant inhibition (Anbg)
Experimental: as §1, §2, §3, §4

Wild buckwheat [9] = experiment: Pre-emergence herbicide test; conditions: Fallopia convolvulus, 11.21 kg/ha, read-out: % plant inhibition (Wibw)
Experimental: as §1, §2, §3, §4

Downy Brome [10] = experiment: Pre-emergence herbicide test; conditions: Bromus tectorum, 11.21 kg/ha, read-out: % plant inhibition (Dobr)
Experimental: as §1, §2, §3, §4

Barnyardgrass [11] = experiment: Post-emergence herbicide test; conditions: Echinochloa crus-galli, 11.21 kg/ha, read-out: % plant inhibition (Bygr)
Description: (§5) Topsoil is placed in aluminum pans having holes in the bottom and compacted to a depth of 0.95 to 1.27 cm from the top of the pan. A predetermined number of seeds of each of several dicotyledonous and monocotyledonous annual plant species and/or vegetative propagules for the perennial plant species are placed on the soil and pressed into the soil surface. The seeds and/or vegetative propagules are covered with soil and leveled. The pans are then placed on a bench in the greenhouse and watered from below as needed. After the plants reach the desired age (two to three weeks), each pan, is removed individually to a spraying chamber and sprayed by means of an atomizer, operating at a spray pressure of 170.3 kPa (10 psig) at the application rates noted. In the spray solution is an amount of an emulsifying agent mixture to give a spray solution or suspension which contains about 0.4% by volume of the emulsifier. The spray solution or suspension contains a sufficient amount of the candidate chemical in order to give application rates of the active ingredient corresponding to those shown in Tables 8 and 8A, while applying a total amount of solution or suspension equivalent to 1870 L/Ha (200 gallons/acre). The pans were returned to the greenhouse and watered as before and the injury to the plants as compared to the control is observed at approximately 10-14 days (usually 11 days) and in some instances observed again at 24-28 days (usually 25 days) after spraying. The post-emergent herbicidal activity shown in these tables is the percent inhibition of each plant species.

Yellow nutsedge [12] = experiment: Post-emergence herbicide test; conditions: Cyperus, 11.21 kg/ha, read-out: % plant inhibition (Yens)
Description: as §5

Indian Mustard [13] = experiment: Post-emergence herbicide test; conditions: Brassica juncea, 11.21 kg/ha, read-out: % plant inhibition (Inmu)
Description: as §5

Velvetleaf [14] = experiment: Post-emergence herbicide test; conditions: Abutilon theophrasti, 11.21 kg/ha, read-out: % plant inhibition (Vele)
Description: as §5

Morningglory [15] = experiment: Post-emergence herbicide test; conditions: Ipomoea, 11.21 kg/ha, read-out: % plant inhibition (Mogl)
Description: as §5

Cocklebur [16] = experiment: Post-emergence herbicide test; conditions: Xanthium strumarium, 11.21 kg/ha, read-out: % plant inhibition (Cobu)
Description: as §5

Seedling johnsongrass [17] = experiment: Post-emergence herbicide test; conditions: Sorghum halepense, 11.21 kg/ha, read-out: % plant inhibition (Sejg)
Description: as §5

Annual bluegrass [18] = experiment: Post-emergence herbicide test; conditions: 11.21 kg/ha, read-out: % plant inhibition (Anbg)
Description: as §5

Wild buckwheat [19] = experiment: Post-emergence herbicide test; conditions: Fallopia convolvulus, 11.21 kg/ha, read-out: % plant inhibition (Wibw)
Description: as §5

Downy Brome [20] = experiment: Post-emergence herbicide test; conditions: Bromus tectorum, 11.21 kg/ha, read-out: % plant inhibition (Dobr)
Description: as §5

| Compound | inhibition at 11210 g/ha (Barnyardgrass [1]) [%] | inhibition at 11210 g/ha (Yellow nutsedge [2]) [%] | inhibition at 11210 g/ha (Indian Mustard [3]) [%] | inhibition at 11210 g/ha (Velvetleaf [4]) [%] | inhibition at 11210 g/ha (Morningglory [5]) [%] | inhibition at 11210 g/ha (Cocklebur [6]) [%] | inhibition at 11210 g/ha (Seedling johnsongrass [7]) [%] | inhibition at 11210 g/ha (Annual bluegrass [8]) [%] | inhibition at 11210 g/ha (Wild buckwheat [9]) [%] | inhibition at 11210 g/ha (Downy Brome [10]) [%] | inhibition at 11210 g/ha (Barnyardgrass [11]) [%] | inhibition at 11210 g/ha (Yellow nutsedge [12]) [%] | inhibition at 11210 g/ha (Indian Mustard [13]) [%] | inhibition at 11210 g/ha (Velvetleaf [14]) [%] | inhibition at 11210 g/ha (Morningglory [15]) [%] | inhibition at 11210 g/ha (Cocklebur [16]) [%] | inhibition at 11210 g/ha (Seedling johnsongrass [17]) [%] | inhibition at 11210 g/ha (Annual bluegrass [18]) [%] | inhibition at 11210 g/ha (Wild buckwheat [19]) [%] | inhibition at 11210 g/ha (Downy Brome [20]) [%] |
| --- | --- | --- | --- | --- | --- | --- | --- | --- | --- | --- | --- | --- | --- | --- | --- | --- | --- | --- | --- | --- |
| Cn1nc(C(F)F)c(Cl)c1-c1cc(F)ccc1F [Compound 62] | 20 | 0 | 20 | 60 | 30 | 0 | 30 | 0 | 20 | 0 | 0 | 0 | 0 | 10 | 0 | 0 | 0 | 0 | 0 | 0 |
| Cc1cc(-c2c(Cl)c(C(F)(F)F)nn2C)c(F)cc1Cl [Compound 63] | 100 | 0 | 100 | 100 | 100 | 60 | 100 | 100 | 100 | 100 | 20 | 0 | 40 | 100 | 100 | 0 | 70 | 20 | 100 | 20 |
| Cn1nc(C(F)(F)F)c(Cl)c1-c1ccc([N+](=O)[O-])cc1 [Compound 65] | 30 | 0 | – | 90 | 20 | 0 | 70 | 70 | 80 | 0 | 70 | 0 | 30 | 70 | 50 | 40 | 50 | 0 | 70 | 10 |
| Cn1nc(C(F)(F)F)c(Br)c1-c1cc(F)ccc1F [Compound 68] | 10 | 30 | 0 | 40 | 30 | 0 | 10 | 0 | – | 0 | 0 | 0 | 0 | 0 | 0 | 0 | 0 | 0 | 0 | 0 |

Reference: patent US5530126A, “Process for the preparation of substituted 6-(pyrazol-3yl)-1,4-benzoxazin-3-ones” (Monsanto Company, priority 1994, dated 1996)
